Experimental data from publication PMC6389848, “Characterization and structure‐guided engineering of the novel versatile terpene monooxygenase CYP109Q5 from Chondromyces apiculatus DSM436” (Microbial Biotechnology, 2018).

Legend:
CYP109B1 = molecular target: T1, CYP109B1 (Bacillus subtilis, UniProt O34374); assay: in vitro biotransformation, GC-FID / GC-MS; assay type: biochemical; details: redox partners CamA/CamB from Pseudomonas putida, NAD(P)H, 1 mM substrate, 2 μM P450, pH 7.0, 30°C, 2 h
T1 construct: gene yjiB; purified enzyme; construct not described in main text
T1 sequence (O34374 1-396): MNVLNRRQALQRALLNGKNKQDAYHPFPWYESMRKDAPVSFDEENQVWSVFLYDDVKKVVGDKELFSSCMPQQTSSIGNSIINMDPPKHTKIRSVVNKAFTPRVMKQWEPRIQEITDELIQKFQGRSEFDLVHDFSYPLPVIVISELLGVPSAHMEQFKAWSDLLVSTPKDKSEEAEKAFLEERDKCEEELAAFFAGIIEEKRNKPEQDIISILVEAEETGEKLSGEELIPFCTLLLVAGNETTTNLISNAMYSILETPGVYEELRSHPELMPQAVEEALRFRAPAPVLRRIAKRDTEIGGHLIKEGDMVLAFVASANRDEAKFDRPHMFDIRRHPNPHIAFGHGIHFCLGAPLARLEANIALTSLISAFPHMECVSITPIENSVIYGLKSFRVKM

CYP109Q5 = molecular target: T2, CYP109Q5 (Chondromyces apiculatus, UniProt A0A017T5A5); assay: in vitro biotransformation, HPLC; assay type: biochemical; details: redox partners CamA/CamB from Pseudomonas putida, NAD(P)H, 1 mM substrate, 2 μM P450, pH 7.0, 30°C
T2 construct: gene CAP_4855; native gene from genomic DNA in pBAD33, untagged, E. coli JW5510, partially purified by anion exchange
T2 sequence (A0A017T5A5 1-397): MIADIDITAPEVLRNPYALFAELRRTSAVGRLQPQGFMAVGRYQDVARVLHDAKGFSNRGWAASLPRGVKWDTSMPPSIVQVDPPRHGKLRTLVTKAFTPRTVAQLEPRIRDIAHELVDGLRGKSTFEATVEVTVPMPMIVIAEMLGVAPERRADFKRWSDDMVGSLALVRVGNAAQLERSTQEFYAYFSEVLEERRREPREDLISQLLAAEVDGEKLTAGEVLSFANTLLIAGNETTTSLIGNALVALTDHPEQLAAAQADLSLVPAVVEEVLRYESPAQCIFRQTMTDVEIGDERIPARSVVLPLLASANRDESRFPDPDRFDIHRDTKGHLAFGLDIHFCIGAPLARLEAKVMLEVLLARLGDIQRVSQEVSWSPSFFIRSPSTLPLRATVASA

Compound	in vitro biotransformation, GC-FID / GC-MS (CYP109B1)	in vitro biotransformation, HPLC (CYP109Q5)
CC(=O)/C=C/C1=C(C)CCCC1(C)C [compound 1, β‐ionone]	The reference CYP109B1 hydroxylated β‐ionone exclusively in the allylic position	–
O=C(O)Cc1ccccc1Nc1c(Cl)cccc1Cl [compound 26, diclofenac]	–	CYP109Q5 also exhibited activities towards diclofenac, mefenamic acid, nerolidol, camphor
